Test results taken from ChEMBL document CHEMBL5030558, “Optimization and Evaluation of Novel Antifungal Agents for the Treatment of Fungal Infection” (J Med Chem, 2021).
Values after ≈ are worked out from the molar mass of the structure shown. Active and inactive are the calls of the source. The calls are words filed in the database; no cut-off is given here.

What was measured:
[1] = biological target: Cytochrome P450 2C9 (Homo sapiens, UniProt P11712); assay: Inhibition of CYP2C9 (unknown origin) relative to control; format: ADME
[2] = biological target: Cytochrome P450 3A4 (Homo sapiens, UniProt P08684); assay: Inhibition of CYP3A4 (unknown origin) relative to control; format: ADME
[3] = system: Cryptococcus neoformans; assay: Antifungal activity against Cryptococcus neoformans H99 assessed as reduction in fungal growth incubated for 72 hrs by CLSI based broth microdilution method; format: functional
[4] = system: Candida albicans; assay: Antifungal activity against Candida albicans ATCC SC5314 assessed as reduction in fungal growth incubated for 48 hrs by CLSI based broth microdilution method; format: functional
[5] = system: Nakaseomyces glabratus; assay: Antifungal activity against Candida glabrata BG2 assessed as reduction in fungal growth incubated for 48 hrs by CLSI based broth microdilution method; format: functional
[6] = system: Aspergillus fumigatus; assay: Antifungal activity against Aspergillus fumigatus AF293 assessed as reduction in fungal growth incubated for 48 hrs by CLSI based broth microdilution method; format: functional
[7] = Stability in human liver microsomes assessed as parent compound remaining after 30 mins; format: ADME, Microsome; settings: read-out: Stability
[8] = Stability in rat liver microsomes assessed as parent compound remaining after 30 mins; format: ADME, Microsome; settings: microsomes, 0.5 h
[9] = Stability in mouse liver microsomes assessed as parent compound remaining after 30 mins; format: ADME, Microsome; settings: microsomes, 0.5 h
[10] = system: Trichophyton rubrum; assay: Fungicidal activity against Trichophyton rubrum KCCM60450 at 8 times after 24 hrs by time-kill kinetics assay; format: functional, organism-based
[11] = system: Trichophyton mentagrophytes; assay: Fungicidal activity against Trichophyton mentagrophytes KCCM60449 at 8 times after 24 hrs by time-kill kinetics assay; format: functional, organism-based

Cytochrome P450 3A4, sequence (P08684 whole entry): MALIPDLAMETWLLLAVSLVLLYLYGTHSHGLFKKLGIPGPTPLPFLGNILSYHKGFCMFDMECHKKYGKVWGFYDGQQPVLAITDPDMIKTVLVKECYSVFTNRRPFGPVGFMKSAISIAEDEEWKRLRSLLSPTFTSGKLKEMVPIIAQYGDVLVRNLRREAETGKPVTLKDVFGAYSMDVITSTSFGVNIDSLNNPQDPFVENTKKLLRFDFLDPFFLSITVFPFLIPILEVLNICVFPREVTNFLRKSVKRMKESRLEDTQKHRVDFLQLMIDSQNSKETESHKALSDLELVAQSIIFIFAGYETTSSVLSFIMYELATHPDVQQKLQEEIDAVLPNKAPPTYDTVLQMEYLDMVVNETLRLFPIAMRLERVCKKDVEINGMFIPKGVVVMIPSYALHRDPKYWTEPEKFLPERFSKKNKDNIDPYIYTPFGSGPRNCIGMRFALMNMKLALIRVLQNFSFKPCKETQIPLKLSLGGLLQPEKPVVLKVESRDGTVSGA
Cytochrome P450 2C9, sequence (P11712 whole entry): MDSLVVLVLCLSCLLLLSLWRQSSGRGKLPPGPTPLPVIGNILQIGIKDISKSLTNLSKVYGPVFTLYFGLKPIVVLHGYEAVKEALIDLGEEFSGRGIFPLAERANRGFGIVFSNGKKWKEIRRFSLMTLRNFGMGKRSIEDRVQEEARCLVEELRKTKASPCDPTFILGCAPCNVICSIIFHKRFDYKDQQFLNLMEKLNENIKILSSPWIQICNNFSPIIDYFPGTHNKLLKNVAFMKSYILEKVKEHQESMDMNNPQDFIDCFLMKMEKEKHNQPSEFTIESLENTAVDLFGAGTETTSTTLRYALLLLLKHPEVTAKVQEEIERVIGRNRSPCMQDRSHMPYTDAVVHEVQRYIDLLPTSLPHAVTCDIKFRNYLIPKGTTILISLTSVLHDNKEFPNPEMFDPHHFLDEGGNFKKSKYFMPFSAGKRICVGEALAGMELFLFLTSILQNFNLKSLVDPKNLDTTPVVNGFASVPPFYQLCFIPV

| SMILES | inhibition (INH) [1] [%] | inhibition (INH) [2] [%] | MIC [3] [µg/mL] | MIC [4] [µg/mL] | MIC [5] [µg/mL] | MIC [6] [µg/mL] | remaining at 0.5 h [7] [%] | Stability [8] | Stability [9] | Activity [10] | Activity [11] |
| --- | --- | --- | --- | --- | --- | --- | --- | --- | --- | --- | --- |
| CCCCC(NC)C(=O)NCCc1ccc(-c2ccc(Cl)c(Cl)c2)cc1.Cl (racemic) | – | – | 4 | 8 | 8 | 8 | > 85 | Unstable | Unstable | – | – |
| CN(C/C=C/C#CC(C)(C)C)Cc1cccc2ccccc12 | – | – | – | – | – | – | – | – | – | inactive | inactive |
| CCCC(N)C(=O)NCCc1ccc(-c2ccc(F)c(F)c2)cc1.Cl (racemic) | – | – | 32 | 16 | 64 | 64 | > 85 | – | – | – | – |
| CCCC(N)C(=O)NCCc1ccc(-c2ccc(OC(F)(F)F)cc2)cc1.Cl (racemic) | – | – | 4 | 8 | 16 | 16 | – | – | – | – | – |
| CCC(N)C(=O)NCCc1ccc(-c2ccc(Cl)c(Cl)c2)cc1.Cl (racemic) | – | – | 8 | 8 | 16 | 16 | – | – | – | – | – |
| Nc1ncccc1C(=O)NCCc1ccc(-c2ccc(Cl)c(Cl)c2)cc1 | – | – | 128 (≈ 331 µM) | 128 (≈ 331 µM) | 128 (≈ 331 µM) | 128 (≈ 331 µM) | – | – | – | – | – |
| CCC(NC)C(=O)NCCc1ccc(-c2ccc(C(F)(F)F)cc2)cc1.Cl (racemic) | – | – | 16 | 32 | 64 | 64 | – | – | – | – | – |
| Cl.O=C(NCCc1ccc(-c2ccc(C(F)(F)F)cc2)cc1)C1CCNC1 (racemic) | – | – | 64 | 32 | 64 | 64 | – | – | – | – | – |
| CCCCC(NC)C(=O)NCCc1ccc(-c2ccc(C(F)(F)F)cc2)cc1.Cl (racemic) | – | – | 4 | 16 | 16 | 16 | – | – | – | – | – |
| CCC(N)C(=O)NCCc1ccc(-c2ccc(OC(F)(F)F)cc2)cc1.Cl (racemic) | – | – | 16 | 16 | 16 | 32 | – | – | – | – | – |
| Cl.O=C(NCCc1ccc(-c2ccc(C(F)(F)F)cc2)cc1)C1CCCN1 (racemic) | – | – | 16 | 32 | 32 | 32 | – | – | – | – | – |
| CN1CCCCC1C(=O)NCCc1ccc(-c2ccc(Cl)c(Cl)c2)cc1 (racemic) | – | – | 8 (≈ 20.4 µM) | 128 (≈ 327 µM) | 16 (≈ 40.9 µM) | 16 (≈ 40.9 µM) | – | – | – | – | – |
| CCC(N)C(=O)NCCc1ccc(-c2ccc(F)c(F)c2)cc1.Cl (racemic) | – | – | 64 | 32 | 64 | 64 | – | – | – | – | – |
| CCC(NC)C(=O)NCCc1ccc(-c2ccc(Cl)c(Cl)c2)cc1.Cl (racemic) | – | – | 8 | 16 | 16 | 16 | – | – | – | – | – |
| Cl.O=C(NCCc1ccc(-c2ccc(Cl)c(Cl)c2)cc1)C1CCCCN1 (racemic) | – | – | 8 | 16 | 16 | 16 | – | – | – | – | – |
| CN1CCCC1C(=O)NCCc1ccc(-c2ccc(Cl)c(Cl)c2)cc1 (racemic) | – | – | 8 (≈ 21.2 µM) | 128 (≈ 339 µM) | 16 (≈ 42.4 µM) | 16 (≈ 42.4 µM) | – | – | – | – | – |
| CCCCC(NC)C(=O)NCCc1ccc(-c2ccc(OC(F)(F)F)cc2)cc1.Cl (racemic) | – | – | 4 | 16 | 16 | 8 | – | – | – | – | – |
| CCCCC(N)C(=O)NCCc1ccc(-c2ccc(C(F)(F)F)cc2)cc1.Cl (racemic) | – | – | 4 | 8 | 8 | 8 | – | – | – | – | – |
| CCCC(N)C(=O)NCCc1ccc(-c2ccc(C(F)(F)F)cc2)cc1.Cl (racemic) | – | – | 8 | 8 | 16 | 16 | – | – | – | – | – |
| CC(=O)N1CCCC1C(=O)NCCc1ccc(-c2ccc(C(F)(F)F)cc2)cc1 (racemic) | – | – | > 128 | > 128 | > 128 | > 128 | – | – | – | – | – |
| Cl.O=C(NCCc1ccc(-c2ccc(Cl)c(Cl)c2)cc1)C1CCCN1 (stereo unspecified) | – | – | 8 | 16 | 16 | 16 | – | – | – | – | – |

Further lines, with some results ahead:

| inhibition (INH) [1] [%] | inhibition (INH) [2] [%] | MIC [3] [µg/mL] | MIC [4] [µg/mL] | MIC [5] [µg/mL] | MIC [6] [µg/mL] | remaining at 0.5 h [7] [%] | Stability [8] | Stability [9] | SMILES | Activity [10] | Activity [11] |
| --- | --- | --- | --- | --- | --- | --- | --- | --- | --- | --- | --- |
| > 70 | > 70 | 16 | 16 | 32 | 32 | – | – | – | CCCC(N)C(=O)NCCc1ccc(OCc2ccc(C(F)(F)F)cc2)cc1.Cl (racemic) | – | – |
| – | – | 128 | > 128 | > 128 | > 128 | – | – | – | CC(NCCc1ccc(OCc2ccccc2F)cc1)C(N)=O.CS(=O)(=O)O (stereo unspecified) | – | – |
| – | – | 8 | 8 | 16 | 16 | – | – | – | CCCC(N)C(=O)NCCc1ccc(OCc2ccc(Cl)c(Cl)c2)cc1.Cl (racemic) | – | – |
| – | – | 8 | 32 | 32 | 32 | – | – | – | CC(NCCc1ccc(OCc2ccc(Cl)cc2Cl)cc1)C(N)=O.CS(=O)(=O)O (racemic) | – | – |
| – | – | 8 | 32 | 32 | 32 | – | – | – | CC(NCCc1ccc(Oc2ccc(Cl)c(Cl)c2)cc1)C(N)=O.CS(=O)(=O)O (racemic) | – | – |
| – | – | 32 | 128 | > 128 | 128 | – | – | – | CC(NCCc1ccc(OCc2cccc(Cl)c2)cc1)C(N)=O.CS(=O)(=O)O (racemic) | – | – |
| – | – | 32 | > 128 | > 128 | 128 | – | – | – | CC(NCCc1ccc(OCc2ccccc2Cl)cc1)C(N)=O.CS(=O)(=O)O (racemic) | – | – |
| – | – | 64 | > 128 | > 128 | > 128 | – | – | – | CC(NCCc1ccc(OCc2cccc(F)c2)cc1)C(N)=O.CS(=O)(=O)O (racemic) | – | – |
| – | – | 32 | > 128 | 64 | 16 | – | – | – | CC(NCCc1ccc(-c2cccc(OC(F)(F)F)c2)cc1)C(N)=O.CS(=O)(=O)O (racemic) | – | – |
| – | – | 8 | 32 | 32 | 32 | – | – | – | CCCC(NC)C(=O)NCCc1ccc(OCc2ccc(Cl)c(Cl)c2)cc1.Cl (racemic) | – | – |
| – | – | 64 | 128 | 128 | 128 | – | – | – | CC(C)(NCCc1ccc(OCc2ccc(C(F)(F)F)cc2)cc1)C(N)=O.CS(=O)(=O)O | – | – |
| – | – | 8 | 32 | 32 | 32 | – | – | – | CC(NCCc1ccc(OCc2ccc(Cl)c(Cl)c2)cc1)C(N)=O.CS(=O)(=O)O (racemic) | – | – |
| – | – | 128 | > 128 | > 128 | > 128 | – | – | – | CC(C)(NCCc1ccc(OCc2cccc(F)c2)cc1)C(N)=O.CS(=O)(=O)O | – | – |
| – | – | 8 | 32 | 128 | 16 | – | – | – | CCCC(NC)C(=O)NCCc1ccc(-c2ccc(OC(F)(F)F)cc2)cc1.Cl (racemic) | – | – |
| – | – | 16 | 32 | 32 | 32 | – | – | – | CCC(NC)C(=O)NCCc1ccc(-c2ccc(OC(F)(F)F)cc2)cc1.Cl (racemic) | – | – |
| – | – | 32 | 128 | 128 | 64 | – | – | – | CC(NCCc1ccc(OCc2ccc(C(F)(F)F)cc2)cc1)C(N)=O.CS(=O)(=O)O (racemic) | – | – |
| – | – | 128 | > 128 | > 128 | > 128 | – | – | – | CC(NCCc1ccc(OCc2ccc(F)cc2)cc1)C(N)=O.CS(=O)(=O)O (racemic) | – | – |
